# Like-named read-outs stand apart in the source and are kept apart here.
# Legend:
# [1] = system: influx of neutrophils to the lung in LPS-challenged rats; assay: Rat LPS neutrophilia model; type: in vivo; details: LPS aerosol, intratracheal dosing, in at least one of the range of conditions tested, significance p<0.05
# Method in brief: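 Compound given intratracheally (200 ul suspension or dry powder via microsprayer) to isoflurane-anesthetized rats 15 min–24 h before 15 min LPS aerosol (100 ug/ml). Lavage 4 h post-challenge; neutrophils from differential counts. % inhibition versus no-compound controls at a given concentration and pretreat time.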
# [2] = system: TNF-stimulated IL8 production by human neutrophils; assay: TNF-stimulated IL-8 production from human neutrophils; type: cell-based; details: Neutrophil, TNF 100 ng/ml, about 20 hrs, bounds reflect the top concentration screened, for 202(c) and 120 a range over multiple runs with ends given as 'greater than';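 also: IL-8 in cell-free supernatant quantified by sandwich ELISA, inhibition calculated against a compound-free control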
# Protocol: TNF-Stimulated IL-8 Production from Human Neutrophils
# The effect of test compounds on TNF-stimulated IL8 production by human neutrophils is measured as follows. Neutrophils are prepared from blood obtained from consenting donors, using standard methods. Blood is collected in heparinized syringes and layered over histopaque (30 ml/20 ml). Following centrifugation, the red cell pellet is resuspended in PBS and purified over a dextran gradient. […] Cells are added (0.5-1 ml) to 48 well plates already containing compound at 1000× final concentration in neat DMSO or 10% DMSO in RPMI1640 with 10% FBS. TNF (final concentration 100 ng/ml) is used as the stimulus. Cells incubated for approximately 20 hrs at 37° C., 5% CO2. Levels of IL-8 in the cell free supernatant are determined by sandwich ELISA, and inhibition relative to a control with DMPO but no compound is calculated.
# Recombinant human p38α = molecular target: T1, Recombinant human p38α (Homo sapiens, UniProt Q16539); assay: Fluorescence anisotropy kinase binding assay (standard and low volume)
# T1 construct: His; made in house
# Text: Fluorescence Anisotropy Kinase Binding Assay—Standard Volume
# (§1) The concentration of kinase enzyme should preferably be ≧2×Kf. The concentration of fluorescent ligand required will depend on the instrumentation used, and the fluorescent and physicochemical properties. The concentration used must be lower than the concentration of kinase enzyme, and preferably less than half the kinase enzyme concentration.
# The fluorescent ligand is the following compound:
# which is derived from 5-[2-(4-aminomethylphenyl)-5-pyridin-4-yl-1H-imidazol-4-yl]-2-chlorophenol and rhodamine green.
# Recombinant human p38α was expressed as a GST-tagged protein. To activate this protein, 3.5 μM unactivated p38α was incubated in 50 mM Tris-HCl pH 7.5, 0.1 mM EGTA, 0.1% 2-mercaptoethanol, 0.1 mM sodium vanadate, 10 mM MgAc, 0.1 mM ATP with 200 nM MBP-MKK6 DD at 30 degrees for 30 mins. Following activation p38α was re-purified and the activity assessed using a standard filter-binding assay.
# (§2) Protocol: All components are dissolved in buffer of composition 62.5 mM HEPES, pH 7.5, 1.25 mM CHAPS, 1 mM DTT, 12.5 mM MgCl2 with final concentrations of 12 nM p38α and 5 nM fluorescent ligand. 30 μl of this reaction mixture is added to wells containing 1 μl of various concentrations of test compound (0.28 nM-16.6 μM final) or DMSO vehicle (3% final) in NUNC 384 well black microtitre plate and equilibrated for 30-60 mins at room temperature. Fluorescence anisotropy is read in Molecular Devices Acquest (excitation 485 nm/emission 535 nm).
# Definitions: Ki=dissociation constant for inhibitor binding • Kf=dissociation constant for fluorescent ligand binding
# Fluorescence Anisotropy Kinase Binding Low Volume Assay
# as §1, with “2×Kf.” for “≧2×Kf.”
# as §2, with “containing 0.1” for “containing 1”, “compound (0.02 nM-25” for “compound (0.28 nM-16.6”, “vehicle (1.7%” for “vehicle (3%”, “in Greiner low volume” for “in NUNC”
# It is noted that there are two assay formats shown above for the Fluorescence anisotropy kinase binding assay. The only difference between these two assays is the volume used and the plate type. […] The results described herein may have been performed in either assay format and are not differentiated as to which.
# [3] = 12 nM p38α, 5 nM fluorescent ligand, 5.1 to 8.4 is stated collectively for the listed examples, read-out: pIC50, fluorescence anisotropy kinase binding assay (converted)
# [4] = no IC50 at a concentration of less than 16 uM, read-out: IC50, fluorescence anisotropy kinase binding assay
# T1 sequence (Q16539 whole entry): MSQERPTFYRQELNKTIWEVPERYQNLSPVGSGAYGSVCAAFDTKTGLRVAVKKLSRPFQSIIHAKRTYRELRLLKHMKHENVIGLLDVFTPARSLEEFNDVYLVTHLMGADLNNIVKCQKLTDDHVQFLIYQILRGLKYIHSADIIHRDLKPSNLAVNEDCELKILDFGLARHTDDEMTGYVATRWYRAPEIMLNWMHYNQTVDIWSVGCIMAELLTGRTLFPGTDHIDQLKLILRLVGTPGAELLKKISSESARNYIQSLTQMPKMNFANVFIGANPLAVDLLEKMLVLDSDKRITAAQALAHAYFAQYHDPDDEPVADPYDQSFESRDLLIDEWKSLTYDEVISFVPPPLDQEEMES
smiles,measurement,setting,value
"CCCNC(=O)c1ccc(C)c(-c2nc(N(C)CCCN(C)C)nc3c2ccc(=O)n3-c2c(F)cccc2F)c1 [Example 104, 3-{8-(2,6-difluorophenyl)-2-[[3-(dimethylamino)propyl](methyl)amino]-7-oxo-7,8-dihydropyrido[2,3-d]pyrimidin-4-yl}-4-methyl-N-propylbenzamide]",inhibition of neutrophilia,[1],statistically significant inhibition
same,melting point,,104 to 109 °C
"Cc1ccc(C(=O)NCc2ccccc2)cc1-c1nc(NCc2ncc[nH]2)nc2c1ccc(=O)n2-c1c(F)cccc1F [116(c), 3-{8-(2,6-difluorophenyl)-2-[(1H-imidazol-2-ylmethyl)amino]-7-oxo-7,8-dihydropyrido[2,3-d]pyrimidin-4-yl}-4-methyl-N-(phenylmethyl)benzamide]",melting point,,185 to 190 °C (dec.)
"CCN(CC)CCCNc1nc(-c2cc(C(=O)N[C@H](C)C(C)C)ccc2C)c2ccc(=O)n(-c3c(F)cccc3F)c2n1 [Example 130, 3-[2-{[3-(diethylamino)propyl]amino}-8-(2,6-difluorophenyl)-7-oxo-7,8-dihydropyrido[2,3-d]pyrimidin-4-yl]-N-[(1R)-1,2-dimethylpropyl]-4-methylbenzamide]",IC50,[2],> 0.01 µM
same,inhibition of neutrophilia,[1],statistically nonsignificant inhibition
"CCCNC(=O)c1ccc(C)c(-c2nc(NCCN(C)C)nc3c2ccc(=O)n3-c2c(F)cccc2F)c1 [Example 105, 3-(8-(2,6-difluorophenyl)-2-{[2-(dimethylamino)ethyl]amino}-7-oxo-7,8-dihydropyrido[2,3-d]pyrimidin-4-yl)-4-methyl-N-propylbenzamide]",inhibition of neutrophilia,[1],statistically significant inhibition
same,melting point,,139 to 142 °C
"Cc1c(F)cc(C(=O)NC2CC2)cc1-c1nc(NC(CO)CO)nc2c1ccc(=O)n2-c1c(F)cccc1F [18(e), N-cyclopropyl-3-(8-(2,6-difluorophenyl)-2-{[2-hydroxy-1-(hydroxymethyl)ethyl]amino}-7-oxo-7,8-dihydropyrido[2,3-d]pyrimidin-4-yl)-5-fluoro-4-methylbenzamide]",melting point,,214.2 to 217.5 °C
"CCCNC(=O)c1ccc(C)c(-c2nc(NCCN(C)C(=O)OC(C)(C)C)nc3c2ccc(=O)n3-c2c(F)cccc2F)c1 [Example 106, 1,1-dimethylethyl{2-[(8-(2,6-difluorophenyl)-4-{2-methyl-5-[(propylamino)carbonyl]phenyl}-7-oxo-7,8-dihydropyrido[2,3-d]pyrimidin-2-yl)amino]ethyl}methylcarbamate]",melting point,,115 to 118 °C
"CCCNCCNc1nc(-c2cc(C(=O)NC3CC3)ccc2C)c2ccc(=O)n(-c3c(F)cccc3F)c2n1 [Example 24, N-cyclopropyl-3-(8-(2,6-difluorophenyl)-7-oxo-2-{[2-(propylamino)ethyl]amino}-7,8-dihydropyrido[2,3-d]pyrimidin-4-yl)-4-methylbenzamide]",inhibition of neutrophilia,[1],statistically nonsignificant inhibition
same,melting point,,120 to 134 °C
"Cc1ccc(NC(=O)c2ccsc2)cc1-c1nc(N2CCC(N)CC2)nc2c1ccc(=O)n2-c1c(F)cccc1F [Example 32, N-{3-[2-(4-amino-1-piperidinyl)-8-(2,6-difluorophenyl)-7-oxo-7,8-dihydropyrido[2,3-d]pyrimidin-4-yl]-4-methylphenyl}-3-thiophenecarboxamide]",inhibition of neutrophilia,[1],statistically nonsignificant inhibition
same,melting point,,183.8 to 187.9 °C
Cc1ccc(C(=O)NC2CC2)cc1-c1nc(NCCN(C)C)nc2c1ccc(=O)n2-c1c(F)cccc1F [Example 25],inhibition of neutrophilia,[1],statistically nonsignificant inhibition
same,melting point,,214.7 to 217.5 °C
"CSc1nc(Cl)c2ccc(=O)n(-c3c(F)cccc3F)c2n1 [Example 1(a), 4-chloro-8-(2,6-difluorophenyl)-2-(methylthio)pyrido[2,3-d]pyrimidin-7(8H)-one]",IC50,Recombinant human p38α; [3],> 15.8 µM
same,IC50,Recombinant human p38α; [4],≥ 16 µM
same,IC50,[2],> 0.1 µM
Cc1ccc(C(=O)NC2CC2)cc1-c1nc(NC2CC(C)(C)NC(C)(C)C2)nc2c1ccc(=O)n2-c1c(F)cccc1F [21(c)],melting point,,326.3 to 327.9 °C
"Cc1ccc(NC(=O)c2cccs2)cc1-c1nc(NC2CC(C)(C)NC(C)(C)C2)nc2c1ccc(=O)n2-c1c(F)cccc1F [Example 9, N-(3-{8-(2,6-difluorophenyl)-7-oxo-2-[(2,2,6,6-tetramethyl-4-piperidinyl)amino]-7,8-dihydropyrido[2,3-d]pyrimidin-4-yl}-4-methylphenyl)-2-thiophenecarboxamide]",IC50,Recombinant human p38α; [3],> 15.8 µM
same,IC50,Recombinant human p38α; [4],≥ 16 µM
same,IC50,[2],> 0.1 µM
"O=C(O)c1cccc(-c2nc(NC(CO)CO)nc3c2ccc(=O)n3-c2ccc(F)cc2F)c1 [Example 96(d), 3-(8-(2,4-difluorophenyl)-2-{[2-hydroxy-1-(hydroxymethyl)ethyl]amino}-7-oxo-7,8-dihydropyrido[2,3-d]pyrimidin-4-yl)benzoic acid]",IC50,Recombinant human p38α; [3],> 15.8 µM
same,IC50,Recombinant human p38α; [4],≥ 16 µM

# From patent US20100144755A1 (Glaxo Group Limited, priority 2006, published 2010)
